Measured values published in patent US10570129B2 (Zoetis Services LLC, priority 2015, dated 2020).

Tests used:
D. immitis microfilariae = test: Dirofilaria immitis, microfilariae (DiMF) in vitro motility assay; assay type: cell-based; details: for minimal effective concentration: Dirofilaria immitis, 72 h, read-out: DiMF minimally effective dose (MEC)
Haemonchus contortus L3 = test: microbe, parasite or virus in culture; assay type: cell-based; details: for minimal effective concentration: Haemonchus contortus, 96 h, read-out: HcL3 Minimal Effective Concentration (MEC)

O=C(NCc1ccnc(Cl)c1)n1c2c(c3ccc(OC(F)(F)F)cc31)CN(C/C=C/c1ccc(C(F)(F)F)cc1)CC2 [Example 362, (E)-N-((2-chloropyridin-4-yl)methyl)-7-(trifluoromethoxy)-2-(3-(4-(trifluoro-methyl)phenyl)allyl)-1,2,3,4-tetrahydro-5H-pyrido[4,3-b]indole-5-carboxamide]
minimal effective concentration (D. immitis microfilariae): 31.5 µM | minimal effective concentration (Haemonchus contortus L3): > 100 µM

O=C(NCc1ccnc(Cl)c1)n1c2c(c3cc(Cl)ccc31)CN(C/C=C/c1ccc(Cl)cc1F)CC2 [Example 233, (E)-8-chloro-2-(3-(4-chloro-2-fluorophenyl)allyl)-N-((2-chloropyridin-4-yl)methyl)-1,2,3,4-tetrahydro-5H-pyrido[4,3-b]indole-5-carboxamide]
minimal effective concentration (D. immitis microfilariae): 1.8 µM | minimal effective concentration (Haemonchus contortus L3): 0.01 µM

N#Cc1ccc2c(c1)c1c(n2C(=O)NCc2ccnc(F)c2)CCN(C/C=C/c2c(F)cc(Cl)cc2F)C1 [Example 103, (E)-2-(3-(4-chloro-2,6-difluorophenyl)allyl)-8-cyano-N-((2-fluoropyridin-4-yl)methyl)-1,2,3,4-tetrahydro-5H-pyrido[4,3-b]indole-5-carboxamide]
minimal effective concentration (D. immitis microfilariae): 3.3 µM | minimal effective concentration (Haemonchus contortus L3): 0.2 µM

O=C(NCc1ccnc(Cl)c1)n1c2c(c3cc4c(cc31)COC4)CN(C/C=C/c1ccc(Cl)cc1)CC2 [Example 480, (E)-8-(3-(4-chlorophenyl)allyl)-N-((2-chloropyridin-4-yl)methyl)-1,3,6,7,8,9-hexahydro-5H-furo[3,4-f]pyrido[4,3-b]indole-5-carboxamide]
minimal effective concentration (D. immitis microfilariae): 3.3 µM | minimal effective concentration (Haemonchus contortus L3): 0.3 µM

N#Cc1ccc(/C=C/CN2CCc3c(c4ccc(Cl)cc4n3C(=O)NCc3ccnc(Cl)c3)C2)cc1 [Example 212, (E)-7-chloro-N-((2-chloropyridin-4-yl)methyl)-2-(3-(4-cyanophenyl)allyl)-1,2,3,4-tetrahydro-5H-pyrido[4,3-b]indole-5-carboxamide]
minimal effective concentration (D. immitis microfilariae): > 100 µM | minimal effective concentration (Haemonchus contortus L3): 1 µM

O=C(NCc1ccnc(Cl)c1)n1c2c(c3ccc(OC(F)(F)F)cc31)CN(C/C=C/c1ccc(F)cc1Cl)CC2 [Example 346, (E)-2-(3-(2-chloro-4-fluorophenyl)allyl)-N-((2-chloropyridin-4-yl)methyl)-7-(trifluoromethoxy)-1,2,3,4-tetrahydro-5H-pyrido[4,3-b]indole-5-carboxamide]
minimal effective concentration (D. immitis microfilariae): 1.8 µM | minimal effective concentration (Haemonchus contortus L3): 0.5 µM

CS(=O)(=O)c1ccc(/C=C/CN2CCc3c(c4cc(C#N)ccc4n3C(=O)NCc3ccnc(F)c3)C2)cc1 [Example 100, (E)-8-cyano-N-((2-fluoropyridin-4-yl)methyl)-2-(3-(4-(methylsulfonyl)-phenyl)allyl)-1,2,3,4-tetrahydro-5H-pyrido[4,3-b]indole-5-carboxamide]
minimal effective concentration (D. immitis microfilariae): > 100 µM | minimal effective concentration (Haemonchus contortus L3): > 100 µM

N#Cc1ccc(/C=C/CN2CCc3c(c4ccc(C(F)(F)F)cc4n3C(=O)NCc3ccnc(Cl)c3)C2)cc1F [Example 153, (E)-N-((2-chloropyridin-4-yl)methyl)-2-(3-(4-cyano-3-fluorophenyl)allyl)-7-(trifluoromethyl)-1,2,3,4-tetrahydro-5H-pyrido[4,3-b]indole-5-carboxamide]
minimal effective concentration (D. immitis microfilariae): 7.6 µM | minimal effective concentration (Haemonchus contortus L3): 1.3 µM

N#Cc1ccc2c3c(n(C(=O)NCc4ccnc(C5CC5)c4)c2c1)CCN(C/C=C/c1ccc(Cl)c(F)c1)C3 [Example 515, (E)-2-(3-(4-chloro-3-fluorophenyl)allyl)-7-cyano-N-((2-cyclopropylpyridin-4-yl)methyl)-1,2,3,4-tetrahydro-5H-pyrido[4,3-b]indole-5-carboxamide]
minimal effective concentration (D. immitis microfilariae): 13.5 µM | minimal effective concentration (Haemonchus contortus L3): 1.8 µM

COc1cc2c3c(n(C(=O)NCc4ccnc(Cl)c4)c2cc1C#N)CCN(C/C=C/c1ccc(Cl)cc1)C3 [Example 493, (E)-2-(3-(4-chlorophenyl)allyl)-N-((2-chloropyridin-4-yl)methyl)-7-cyano-8-methoxy-1,2,3,4-tetrahydro-5H-pyrido[4,3-b]indole-5-carboxamide]
minimal effective concentration (D. immitis microfilariae): 5.7 µM | minimal effective concentration (Haemonchus contortus L3): 1 µM

O=C(NCc1ccnc(F)c1)n1c2c(c3ccc(C(F)(F)F)cc31)CN(C/C=C/c1ccc(Cl)c(Cl)c1)CC2 [Example 166, (E)-2-(3-(3,4-dichlorophenyl)allyl)-N-((2-fluoropyridin-4-yl)methyl)-7-(trifluoromethyl)-1,2,3,4-tetrahydro-5H-pyrido[4,3-b]indole-5-carboxamide]
minimal effective concentration (D. immitis microfilariae): 5.7 µM | minimal effective concentration (Haemonchus contortus L3): 10 µM

O=C(NCc1ccnc(F)c1)n1c2c(c3cc(-c4ccc(F)cc4)ccc31)CN(C/C=C/c1ccc(Cl)cc1)CC2 [Example 463, (E)-2-(3-(4-chlorophenyl)allyl)-8-(4-fluorophenyl)-N-((2-fluoropyridin-4-yl)methyl)-1,2,3,4-tetrahydro-5H-pyrido[4,3-b]indole-5-carboxamide]
minimal effective concentration (D. immitis microfilariae): > 100 µM | minimal effective concentration (Haemonchus contortus L3): > 100 µM

O=C(NCc1ccnc(Cl)c1)n1c2c(c3c4c(ccc31)COC4)CN(C/C=C/c1ccc(Cl)cc1)CC2 [Example 490, (E)-9-(3-(4-chlorophenyl)allyl)-N-((2-chloropyridin-4-yl)methyl)-1,3,7,8,9,10-hexahydro-6H-furo[3,4-e]pyrido[4,3-b]indole-6-carboxamide]
minimal effective concentration (D. immitis microfilariae): 10 µM | minimal effective concentration (Haemonchus contortus L3): 0.2 µM

O=C(NCc1ccnc(Cl)c1)n1c2c(c3cc(F)c(Cl)cc31)CN(C/C=C/c1cc(F)cc(F)c1)CC2 [Example 302, (E)-7-chloro-N-((2-chloropyridin-4-yl)methyl)-2-(3-(3,5-difluorophenyl)-allyl)-8-fluoro-1,2,3,4-tetrahydro-5H-pyrido[4,3-b]indole-5-carboxamide]
minimal effective concentration (D. immitis microfilariae): 5.7 µM | minimal effective concentration (Haemonchus contortus L3): 0.3 µM

O=C(NCc1ccnc(Cl)c1)n1c2c(c3cc(Cl)ccc31)CN(C/C=C/c1ccc(C(F)(F)F)cc1)CC2 [Example 246, (E)-8-chloro-N-((2-chloropyridin-4-yl)methyl)-2-(3-(4-(trifluoromethyl)-phenyl)allyl)-1,2,3,4-tetrahydro-5H-pyrido[4,3-b]indole-5-carboxamide]
minimal effective concentration (D. immitis microfilariae): 10 µM | minimal effective concentration (Haemonchus contortus L3): 3.3 µM

CSc1ccc2c(c1)c1c(n2C(=O)NCc2ccnc(Cl)c2)CCN(C/C=C/c2ccc(Cl)c(F)c2)C1 [Example 445, (E)-2-(3-(4-chloro-3-fluorophenyl)allyl)-N-((2-chloropyridin-4-yl)methyl)-8-(methylthio)-1,2,3,4-tetrahydro-5H-pyrido[4,3-b]indole-5-carboxamide]
minimal effective concentration (D. immitis microfilariae): 33 µM | minimal effective concentration (Haemonchus contortus L3): 0.5 µM

(E)-N-((2-chloropyridin-4-yl)methyl)-2-(3-(3,4-dichlorophenyl)allyl)-8-(pyrrolidin-1-yl)-1,2,3,4-tetrahydro-5H-pyrido[4,3-b]indole-5-carboxamide [Example 507]
DiMF minimally effective dose (MEC) (D. immitis microfilariae; decrease in microfilariae motility by subjective visual assessment, observed at 72 hours): 13.5 µM | HcL3 Minimal Effective Concentration (MEC) (Haemonchus contortus L3): 10.0 µM

N#Cc1ccc2c(c1)c1c(n2C(=O)NCc2ccnc(F)c2)CCN(C/C=C/c2cccc(Cl)c2F)C1 [Example 118, (E)-2-(3-(3-chloro-2-fluorophenyl)allyl)-8-cyano-N-((2-fluoropyridin-4-yl)methyl)-1,2,3,4-tetrahydro-5H-pyrido[4,3-b]indole-5-carboxamide]
minimal effective concentration (D. immitis microfilariae): 5.7 µM | minimal effective concentration (Haemonchus contortus L3): 1.8 µM

O=C(NCc1ccnc(F)c1)n1c2c(c3cc(Cl)c(Cl)cc31)CN(C/C=C/c1ccc(Cl)cc1)CC2 [Example 292, (E)-7,8-dichloro-2-(3-(4-chlorophenyl)allyl)-N-((2-fluoropyridin-4-yl)methyl)-1,2,3,4-tetrahydro-5H-pyrido[4,3-b]indole-5-carboxamide]
minimal effective concentration (D. immitis microfilariae): 5.7 µM | minimal effective concentration (Haemonchus contortus L3): 3.3 µM

O=C(NCc1ccnc(F)c1)n1c2c(c3cc(OC(F)(F)F)ccc31)CN(C/C=C/c1cc(F)cc(F)c1)CC2 [Example 407, (E)-2-(3-(3,5-difluorophenyl)allyl)-N-((2-fluoropyridin-4-yl)methyl)-8-(trifluoromethoxy)-1,2,3,4-tetrahydro-5H-pyrido[4,3-b]indole-5-carboxamide]
minimal effective concentration (D. immitis microfilariae): 5.7 µM | minimal effective concentration (Haemonchus contortus L3): 1 µM

O=C(NCc1cnc(Cl)s1)n1c2c(c3cc(OC(F)(F)F)ccc31)CN(C/C=C/c1ccc(Cl)cc1)CC2 [Example 409, (E)-2-(3-(4-chlorophenyl)allyl)-N-((2-chlorothiazol-5-yl)methyl)-8-(trifluoromethoxy)-1,2,3,4-tetrahydro-5H-pyrido[4,3-b]indole-5-carboxamide]
minimal effective concentration (D. immitis microfilariae): 10 µM | minimal effective concentration (Haemonchus contortus L3): 1 µM

N#Cc1ccc(/C=C/CN2CCc3c(c4cc5c(cc4n3C(=O)NCc3ccnc(Cl)c3)COC5)C2)cc1 [Example 479, (E)-N-((2-chloropyridin-4-yl)methyl)-8-(3-(4-cyanophenyl)allyl)-1,3,6,7,8,9-hexahydro-5H-furo[3,4-f]pyrido[4,3-b]indole-5-carboxamide]
minimal effective concentration (D. immitis microfilariae): > 100 µM | minimal effective concentration (Haemonchus contortus L3): 1 µM

N#Cc1ccc(-c2ccc3c(c2)c2c(n3C(=O)NCc3ccnc(F)c3)CCN(C/C=C/c3ccc(Cl)cc3)C2)cn1 [Example 460, (E)-2-(3-(4-chlorophenyl)allyl)-8-(6-cyanopyridin-3-yl)-N-((2-fluoropyridin-4-yl)methyl)-1,2,3,4-tetrahydro-5H-pyrido[4,3-b]indole-5-carboxamide]
minimal effective concentration (D. immitis microfilariae): 57.4 µM | minimal effective concentration (Haemonchus contortus L3): > 100 µM

O=C(NCc1ccnc(Cl)c1)n1c2c(c3ccc(OC(F)(F)F)cc31)CN(Cc1ccc3nc(Cl)ccc3c1)CC2 [Example 367, N-((2-chloropyridin-4-yl)methyl)-2-((2-chloroquinolin-6-yl)methyl)-7-(trifluoromethoxy)-1,2,3,4-tetrahydro-5H-pyrido[4,3-b]indole-5-carboxamide]
minimal effective concentration (D. immitis microfilariae): > 100 µM | minimal effective concentration (Haemonchus contortus L3): 10 µM
